According to patent publication US10131652B2, “Pyrimidinyloxy benzene derivatives as herbicides” (E. I. DU PONT DE NEMOURS AND COMPANY, priority 2014, dated 2018):
Like-named read-outs stand apart in the source and are kept apart here.

Tests used:
Assay in all cases: Test F pre-/postemergence plant response
Assay type in all cases: in vivo
[1] = test system: field bindweed (Convolvulus arvensis); details: Convolvulus arvensis, scale 0 to 100, read-out: Plant response rating, Field Bindweed
In short: (§1)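 Herbicidal effect judged by eye against controls, scored 0–100 (complete control = 100). Applications: pre-emergence onto seeded silt loam, post-emergence onto 2–18 cm seedlings; greenhouse, 14–21 days.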

[2] = test system: velvetleaf (Abutilon theophrasti); details: Abutilon theophrasti, pre-emergence, scale 0 to 100, read-out: Plant response rating, Velvetleaf
In short: as §1

[3] = test system: barnyardgrass (Echinochloa crus-galli); details: Echinochloa crus-galli, scale 0 to 100, read-out: Plant response rating, Barnyardgrass
In short: as §1

[4] = test system: johnsongrass (Sorghum halepense); details: Sorghum halepense, pre-emergence, scale 0 to 100, read-out: Plant response rating, Johnsongrass
In short: as §1

[5] = test system: ragweed (common ragweed, Ambrosia elatior); details: Ambrosia artemisiifolia, pre-emergence, scale 0 to 100, read-out: Plant response rating, Ragweed
In short: as §1

[6] = test system: yellow nutsedge (Cyperus esculentus); details: Cyperus, pre-emergence, scale 0 to 100, read-out: Plant response rating, Nutsedge, Yellow
In short: as §1

[7] = test system: waterhemp (common waterhemp, Amaranthus rudis); details: Amaranthus tuberculatus, scale 0 to 100, read-out: Plant response rating, Waterhemp
In short: as §1

[8] = test system: giant foxtail (Setaria faberii); details: Setaria faberi, pre-emergence, scale 0 to 100, read-out: Plant response rating, Foxtail, Giant
In short: as §1

[9] = test system: hairy beggarticks (Bidens pilosa); details: Bidens pilosa, scale 0 to 100, read-out: Plant response rating, Beggarticks
In short: as §1

[10] = test system: morningglory (Ipomoea coccinea); details: Ipomoea, pre-emergence, scale 0 to 100, read-out: Plant response rating, Morningglory
In short: as §1

[11] = test system: dayflower (Virginia (VA) dayflower, Commelina virginica); details: Commelina virginica, scale 0 to 100, read-out: Plant response rating, Dayflower, VA
In short: as §1

[12] = post-emergence, 8 g ai/ha Postemergence
[13] = post-emergence, 16 g ai/ha Postemergence
[14] = post-emergence, 31 g ai/ha Postemergence
[15] = post-emergence, 62 g ai/ha Postemergence
[16] = post-emergence, 125 g ai/ha Postemergence
[17] = pre-emergence, 8 g ai/ha Preemergence
[18] = pre-emergence, 16 g ai/ha Preemergence
[19] = pre-emergence, 31 g ai/ha Preemergence
[20] = pre-emergence, 62 g ai/ha Preemergence
[21] = pre-emergence, 125 g ai/ha Preemergence

FC(F)c1cc(-c2ccccc2Oc2ncc(Br)cn2)no1 [Compound 62, 5-bromo-2-[2-[5-(difluoromethyl)-3-isoxazolyl]phenoxy]pyrimidine]
pest or weed control at 8 g/ha [1, 12]: 40%
pest or weed control at 16 g/ha [1, 13]: 40%
pest or weed control at 31 g/ha [1, 14]: 35%
pest or weed control at 62 g/ha [1, 15]: 50%
pest or weed control at 125 g/ha [1, 16]: 75%
pest or weed control at 8 g/ha [1, 17]: 0%
pest or weed control at 16 g/ha [1, 18]: 0%
pest or weed control at 31 g/ha [1, 19]: 0%
pest or weed control at 62 g/ha [1, 20]: 0%
pest or weed control at 125 g/ha [1, 21]: 0%
pest or weed control at 8 g/ha ([2]; 8 g ai/ha Preemergence): 0%
pest or weed control at 16 g/ha ([2]; 16 g ai/ha Preemergence): 35%
pest or weed control at 31 g/ha ([2]; 31 g ai/ha Preemergence): 75%
pest or weed control at 125 g/ha ([2]; 125 g ai/ha Preemergence): 100%
pest or weed control at 62 g/ha ([2]; Preemergence): 100%
pest or weed control at 8 g/ha [3, 12]: 10%
pest or weed control at 16 g/ha [3, 13]: 15%
pest or weed control at 31 g/ha [3, 14]: 20%
pest or weed control at 62 g/ha [3, 15]: 20%
pest or weed control at 125 g/ha [3, 16]: 20%
pest or weed control at 8 g/ha [3, 17]: 0%
pest or weed control at 16 g/ha [3, 18]: 0%
pest or weed control at 31 g/ha [3, 19]: 0%
pest or weed control at 62 g/ha [3, 20]: 0%
pest or weed control at 125 g/ha [3, 21]: 25%
pest or weed control at 8 g/ha ([4]; 8 g ai/ha Preemergence): 0%
pest or weed control at 16 g/ha ([4]; 16 g ai/ha Preemergence): 0%
pest or weed control at 31 g/ha ([4]; 31 g ai/ha Preemergence): 20%
pest or weed control at 125 g/ha ([4]; 125 g ai/ha Preemergence): 40%
pest or weed control at 62 g/ha ([4]; Preemergence): 35%
pest or weed control at 8 g/ha ([5]; 8 g ai/ha Preemergence): 0%
pest or weed control at 16 g/ha ([5]; 16 g ai/ha Preemergence): 20%
pest or weed control at 31 g/ha ([5]; 31 g ai/ha Preemergence): 25%
pest or weed control at 125 g/ha ([5]; 125 g ai/ha Preemergence): 35%
pest or weed control at 62 g/ha ([5]; Preemergence): 40%
pest or weed control at 8 g/ha ([6]; 8 g ai/ha Preemergence): 0%
pest or weed control at 16 g/ha ([6]; 16 g ai/ha Preemergence): 0%
pest or weed control at 31 g/ha ([6]; 31 g ai/ha Preemergence): 0%
pest or weed control at 125 g/ha ([6]; 125 g ai/ha Preemergence): 0%
pest or weed control at 62 g/ha ([6]; Preemergence): 0%
pest or weed control at 8 g/ha [7, 12]: 80%
pest or weed control at 16 g/ha [7, 13]: 90%
pest or weed control at 31 g/ha [7, 14]: 100%
pest or weed control at 62 g/ha [7, 15]: 100%
pest or weed control at 125 g/ha [7, 16]: 100%
pest or weed control at 8 g/ha [7, 17]: 80%
pest or weed control at 16 g/ha [7, 18]: 85%
pest or weed control at 31 g/ha [7, 19]: 98%
pest or weed control at 125 g/ha [7, 21]: 100%
pest or weed control at 62 g/ha ([7]; pre-emergence, Preemergence): 100%
pest or weed control at 8 g/ha ([8]; 8 g ai/ha Preemergence): 0%
pest or weed control at 16 g/ha ([8]; 16 g ai/ha Preemergence): 15%
pest or weed control at 31 g/ha ([8]; 31 g ai/ha Preemergence): 35%
pest or weed control at 62 g/ha ([8]; 62 g ai/ha Preemergence): 65%
pest or weed control at 125 g/ha ([8]; 125 g ai/ha Preemergence): 75%
pest or weed control at 8 g/ha [9, 12]: 5%
pest or weed control at 16 g/ha [9, 13]: 5%
pest or weed control at 31 g/ha [9, 14]: 10%
pest or weed control at 62 g/ha [9, 15]: 50%
pest or weed control at 125 g/ha [9, 16]: 80%
pest or weed control at 8 g/ha [9, 17]: 0%
pest or weed control at 16 g/ha [9, 18]: 0%
pest or weed control at 31 g/ha [9, 19]: 0%
pest or weed control at 62 g/ha [9, 20]: 0%
pest or weed control at 125 g/ha [9, 21]: 0%
pest or weed control at 8 g/ha ([10]; 8 g ai/ha Preemergence): 0%
pest or weed control at 16 g/ha ([10]; 16 g ai/ha Preemergence): 0%
pest or weed control at 31 g/ha ([10]; 31 g ai/ha Preemergence): 0%
pest or weed control at 125 g/ha ([10]; 125 g ai/ha Preemergence): 50%
pest or weed control at 62 g/ha ([10]; Preemergence): 0%
pest or weed control at 8 g/ha [11, 12]: 0%
pest or weed control at 16 g/ha [11, 13]: 0%
pest or weed control at 31 g/ha [11, 14]: 5%
pest or weed control at 62 g/ha [11, 15]: 25%
pest or weed control at 125 g/ha [11, 16]: 65%
pest or weed control at 8 g/ha [11, 17]: 0%
pest or weed control at 16 g/ha [11, 18]: 0%
pest or weed control at 31 g/ha [11, 19]: 0%
pest or weed control at 62 g/ha [11, 20]: 30%
pest or weed control at 125 g/ha [11, 21]: 80%
